Values quoted from earlier work, collected in patent US7892523B2, “Cosmetic process for the treatment of the skin with sun-protection products and sun-protection products combination” (Coty B.V., priority 2004, dated 2011).

Conditions: known RPFs of standard antioxidants / usual formulations

In the case of `Cc1c(C)c2c(c(C)c1O)CCC(C)(CCCC(C)CCCC(C)CCCC(C)C)O2` (racemic) [DL-α-tocopherol], the “radical protection factor (RPF)” value is given as 41,200 ×10^14 radicals/mg.
In the case of `CC(=O)OC/C=C(C)/C=C/C=C(C)/C=C/C1=C(C)CCCC1(C)C` [all-trans-retinol acetate], the “radical protection factor (RPF)” value is listed as 196 ×10^14 radicals/mg.
For `CC1=C(/C=C/C(C)=C/C=C/C(C)=C/CO)C(C)(C)CCC1` [all-trans-retinol], the “radical protection factor (RPF)” value is listed as 827 ×10^14 radicals/mg.
In the case of `CC(=O)Oc1c(C)c(C)c2c(c1C)CCC(C)(CCC[C@H](C)CCC[C@H](C)CCCC(C)C)O2` (stereo partly drawn) [α-tocopherol acetate], the “radical protection factor (RPF)” value is listed as 48 ×10^14 radicals/mg.
